Patent US9587002B2, “Sequence of nucleotides and peptides GSE 24.2 of dyskerin, which can induce telomerase activity, method for obtaining same, therapeutic compositions and applications thereof” (CONSEJO SUPERIOR DE INVESTIGACIONES CIENTIFICAS, priority 2005, dated 2017)

Columns and labels:
hTERT = test: RT-PCR expression of hTERT in 293T cell lines after cisplatin; type: cell-based, human; conditions: pLNCX cells; 3 μg/ml, 3 days of treatment
Procedure: (§1) FIG. 7.—Expression levels of different genes related to telomerase in 293T cells: pLNCX and 24.2 following treatment with cisplatin. The cells were seeded in 60-mm plates, treated with 3 μg/ml of cDDP following pre-treatment with 0.5 μg/ml of cisplatin for 3 days and, subsequently, collected at the times specified in the figure (3 and 7 days). Following the extraction of RNA, RT-PCR was performed with oligos specific for hTERT, hTR and dyskerin in order to study the expression levels of the messenger RNAs. As a starting RNA control, oligos for the amplification of GAPDH were used.
(§2) One of the explanations for the lower sensitivity of pLNCX 24.2 cells to cisplatin could be a change in the levels of some of the components of the telomerase complex. Therefore, the expression levels of different genes involved in the telomerase complex and the effect that cisplatin had on their expression were studied. To this end, the pLNCX and pLNCX 24.2 cells were pre-treated with 0.5 μg/ml and treated with 3 μg/ml of cisplatin for 3 and 7 days. Using oligos specific for hTR, hTERT and dyskerin, the expression levels of these genes and the effect of cisplatin on said expression were studied. […] This change in the sensitivity to cisplatin could explain, at least partially, the difference in sensitivity in the telomerase activity assays.
(§3) Expression of genes by RT-PCR. […]

hTR = test: RT-PCR expression of hTR in 293T cell lines after cisplatin; type: cell-based, human; conditions: pLNCX and pLNCX 24.2 cells; 3 μg/ml, 3 and 7 days
Procedure: as §1, §2, §3

dyskerin = test: RT-PCR expression of dyskerin in 293T cell lines after cisplatin; type: cell-based, human; conditions: pLNCX and pLNCX 24.2 cells; 3 μg/ml, 3 and 7 days
Procedure: as §1, §2, §3

telomerase [1] = target: T1, telomerase (Homo sapiens, UniProt O14746); conditions: different cell lines / G-quadruplex formation in telomeres; cited from earlier work
telomerase [2] = target: T1, telomerase; test: Telomerase activity (TRAP) of 293T cell lines treated with cisplatin; type: cell-based; design: endogenous in cells; host or cells: 293T cells stably transfected with empty pLNCX or pLNCX 24.2; conditions: 293T pLNCX cells; pre-treated 0.5 μg/ml 3 days, then 3 μg/ml, 7-day treatment
Procedure: FIG. 5.—Telomerase activity of the 293T cell lines: pLNCX and 24.2 following treatment with cisplatin. The cells were seeded in 60-mm plates, pre-treated with 0.5 μg/ml of cisplatin for 3 days and subsequently treated with cisplatin at a dose of 3 μg/ml […]. The telomerase activity was measured by means of the Intergen TRAPeze assay. The experiment was performed 3 times, with similar results.
To this end, an assay of telomerase activity was performed using the TRAP method with the pLNCX and pLNCX 24.2 cell lines (FIG. 5), pre-treating them for 3 days with 0.5 μg/ml of cisplatin; subsequently, they were treated with 3 μg/ml of cisplatin for 3 and 7 days. […]
Telomerase activity assay based on the TRAP method Wright et al., 1995). The telomerase activity was measured using the TRAPeze telomerase detection kit (Intergen) in accordance with the instruction manual. The protein concentration of each extract was quantified by means of the Bradford method using the BIORAD reagent and after performing a PCR in accordance with the manual instructions; polyacrylamide gel electrophoresis was performed with the reaction products under non-denaturing conditions and, subsequently, it was stained with Ethidium bromide for 30 minutes.

T1 sequence (O14746 whole entry): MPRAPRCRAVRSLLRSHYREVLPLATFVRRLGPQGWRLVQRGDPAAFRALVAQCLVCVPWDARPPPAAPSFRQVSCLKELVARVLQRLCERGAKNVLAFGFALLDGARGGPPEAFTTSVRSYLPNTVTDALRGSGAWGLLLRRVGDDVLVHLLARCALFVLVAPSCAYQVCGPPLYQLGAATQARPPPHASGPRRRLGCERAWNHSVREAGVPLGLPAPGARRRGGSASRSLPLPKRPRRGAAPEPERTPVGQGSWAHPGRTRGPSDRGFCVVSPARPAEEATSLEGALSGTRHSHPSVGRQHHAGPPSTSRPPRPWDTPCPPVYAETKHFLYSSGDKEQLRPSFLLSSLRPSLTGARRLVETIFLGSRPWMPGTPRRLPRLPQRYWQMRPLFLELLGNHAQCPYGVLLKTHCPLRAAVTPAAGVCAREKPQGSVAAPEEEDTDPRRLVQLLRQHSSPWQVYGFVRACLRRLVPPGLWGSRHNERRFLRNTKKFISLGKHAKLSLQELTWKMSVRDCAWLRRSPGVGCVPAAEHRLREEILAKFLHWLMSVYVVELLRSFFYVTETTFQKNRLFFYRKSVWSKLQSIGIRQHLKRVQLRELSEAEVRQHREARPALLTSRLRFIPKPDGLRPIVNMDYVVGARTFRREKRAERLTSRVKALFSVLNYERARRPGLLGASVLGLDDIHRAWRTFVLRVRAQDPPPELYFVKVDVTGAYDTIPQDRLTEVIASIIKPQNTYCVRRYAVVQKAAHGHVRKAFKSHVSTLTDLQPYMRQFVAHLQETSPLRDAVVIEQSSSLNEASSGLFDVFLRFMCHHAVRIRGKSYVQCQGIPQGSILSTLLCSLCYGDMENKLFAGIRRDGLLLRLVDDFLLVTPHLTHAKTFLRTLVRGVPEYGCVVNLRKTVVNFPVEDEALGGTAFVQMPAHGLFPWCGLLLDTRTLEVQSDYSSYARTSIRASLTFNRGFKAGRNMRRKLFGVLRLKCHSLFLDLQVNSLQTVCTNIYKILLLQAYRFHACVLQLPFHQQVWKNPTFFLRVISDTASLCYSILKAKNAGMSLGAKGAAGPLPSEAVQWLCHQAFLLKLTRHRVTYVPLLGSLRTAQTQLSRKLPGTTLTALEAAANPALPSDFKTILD
T1 sequence (O60832 2-514 partner limits assumed): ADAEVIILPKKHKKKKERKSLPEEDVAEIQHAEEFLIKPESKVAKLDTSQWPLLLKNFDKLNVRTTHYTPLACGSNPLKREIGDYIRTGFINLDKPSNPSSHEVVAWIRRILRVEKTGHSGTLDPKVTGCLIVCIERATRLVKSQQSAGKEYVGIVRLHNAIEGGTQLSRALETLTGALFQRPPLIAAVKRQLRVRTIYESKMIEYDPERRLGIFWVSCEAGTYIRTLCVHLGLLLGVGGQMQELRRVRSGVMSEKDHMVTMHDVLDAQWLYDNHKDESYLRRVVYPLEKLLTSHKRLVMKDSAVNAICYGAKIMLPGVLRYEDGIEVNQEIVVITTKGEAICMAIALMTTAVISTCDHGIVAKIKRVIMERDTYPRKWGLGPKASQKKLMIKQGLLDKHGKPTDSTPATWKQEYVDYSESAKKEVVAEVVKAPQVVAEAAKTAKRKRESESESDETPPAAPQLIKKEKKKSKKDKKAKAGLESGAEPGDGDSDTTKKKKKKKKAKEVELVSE
T1 sequence (Q9NPE3 whole entry partner): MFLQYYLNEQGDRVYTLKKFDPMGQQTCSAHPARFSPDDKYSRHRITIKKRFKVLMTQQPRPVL
T1 sequence (Q9NX24 whole entry partner): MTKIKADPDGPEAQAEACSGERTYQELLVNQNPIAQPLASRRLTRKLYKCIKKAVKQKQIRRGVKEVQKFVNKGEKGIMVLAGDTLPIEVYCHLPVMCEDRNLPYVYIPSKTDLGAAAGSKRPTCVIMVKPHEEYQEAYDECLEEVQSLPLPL
T1 sequence (Q9NY12 whole entry partner): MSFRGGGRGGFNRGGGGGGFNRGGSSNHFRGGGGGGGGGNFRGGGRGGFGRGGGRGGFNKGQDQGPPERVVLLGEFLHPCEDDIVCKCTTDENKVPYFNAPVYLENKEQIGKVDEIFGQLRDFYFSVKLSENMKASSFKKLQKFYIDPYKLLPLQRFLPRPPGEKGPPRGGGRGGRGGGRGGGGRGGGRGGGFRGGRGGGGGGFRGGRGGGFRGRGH
T1 sequence (Q9BUR4 whole entry partner): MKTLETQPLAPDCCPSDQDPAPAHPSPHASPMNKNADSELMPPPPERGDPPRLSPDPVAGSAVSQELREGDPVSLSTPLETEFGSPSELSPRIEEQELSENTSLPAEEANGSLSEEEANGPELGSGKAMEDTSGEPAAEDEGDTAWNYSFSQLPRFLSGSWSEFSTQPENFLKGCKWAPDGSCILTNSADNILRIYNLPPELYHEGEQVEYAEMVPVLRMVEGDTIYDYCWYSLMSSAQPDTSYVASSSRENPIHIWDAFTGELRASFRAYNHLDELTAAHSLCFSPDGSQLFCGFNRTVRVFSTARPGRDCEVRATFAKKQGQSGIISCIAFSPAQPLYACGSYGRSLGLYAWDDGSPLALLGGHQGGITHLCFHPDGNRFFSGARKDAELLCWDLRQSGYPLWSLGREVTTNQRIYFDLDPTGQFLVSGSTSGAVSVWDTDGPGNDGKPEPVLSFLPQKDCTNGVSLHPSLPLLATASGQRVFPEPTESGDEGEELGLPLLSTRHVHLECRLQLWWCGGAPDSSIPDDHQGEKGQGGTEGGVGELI

## N.N.[Cl][Pt][Cl] [cisplatin]
hTERT
  effect of cisplatin on hTERT expression: reduction in the expression of hTERT
hTR
  effect of cisplatin on hTR expression: no effect
dyskerin
  effect of cisplatin on dyskerin expression: no effect
Telomerase [1]
  inhibition of telomerase activity (literature): capable of inhibiting telomerase activity
Telomerase [2]
  effect of cisplatin on telomerase activity: caused inhibition of telomerase activity
